Assays:
Assay in all cases: in vitro test Minimal Inhibitory Concentration (MIC)
Assay type in all cases: cell-based
F. nucleatum = test system: F. nucleatum
Excerpt: (§1) For example, the oral compositions of the present invention are bactericidal against representative oral bacteria, such as S. mutans, F. nucleatum, V. parvula, A. naeslundii, and P. gingivitis as measured by the in vitro test Minimal Inhibitory Concentration (MIC). The oral composition of the present invention is applied to the oral surfaces in the oral cavity, and promotes overall oral health, including preventing plaque formation, caries formation, calculus formation, halitosis, gingivitis, and periodontitis, for example. For example, in an embodiment of the present invention, where an oral care composition comprises an orally acceptable delivery carrier and a safe and effective amount of the combination of an extract of hops and an extract of magnolia, it has been observed that the antibacterial activity is highly efficacious against both gram-positive and gram-negative bacteria.
(§2) It should be noted that any plant from the Magnoliaceae family is suitable for the present invention and may be used in alternate embodiments. Preferably such that the extract comprises an antimicrobially effective concentration of a compound selected from the group consisting of magnolol, honokiol, tetrahydromagnolol, tetrahydrohonokiol, and mixtures thereof.

S. mutans = test system: S. mutans
Excerpt: as §1, §2

V. parvula = test system: V. parvula
Excerpt: as §1, §2

A. naeslundii = test system: A. naeslundii
Excerpt: as §1, §2

P. gingivitis = test system: P. gingivitis
Excerpt: as §1, §2

Measured: bactericidal properties in Minimal Inhibitory Concentration (MIC) test

C=CCc1ccc(O)c(-c2ccc(O)c(CC=C)c2)c1 [honokiol]
bactericidal: all assays above

C=CCc1ccc(O)c(-c2cc(CC=C)ccc2O)c1 [magnolol]
bactericidal: all assays above

CCCc1ccc(O)c(-c2ccc(O)c(CCC)c2)c1 [tetrahydrohonokiol]
bactericidal: all assays above

CCCc1ccc(O)c(-c2cc(CCC)ccc2O)c1 [tetrahydromagnolol]
bactericidal: all assays above
